B1: G2A (protein, UniProt Q9UNW8 1-380, looked up)
Probable G-protein coupled …: MCPMLLKNGYNGNATPVTTTAPWASLGLSAKTCNNVSFEESRIVLVVVYSAVCTLGVPANCLTAWLALLQVLQGNVLAVYLLCLALCELLYTGTLPLWVIYIRNQHRWTLGLLACKVTAYIFFCNIYVSILFLCCISCDRFVAVVYALESRGRRRRRTAILISACIFILVGIVHYPVFQTEDKETCFDMLQMDSRIAGYYYARFTVGFAIPLSIIAFTNHRIFRSIKQSMGLSAAQKAKVKHSAIAVVVIFLVCFAPYHLVLLVKAAAFSYYRGDRNAMCGLEERLYTASVVFLCLSTVNGVADPIIYVLATDHSRQEVSRIHKGWKEWSMKTDVTRLTHSRDTEELQSPVALADHYTFSRPVHPPGSPCPAKRLIEESC
B2: GPCR25D111A: GPCR25 mutant GPCR, 111th aspartic acid substituted with alanine; SEQ ID NO: 192 (protein)
chain: MNSTCIEEQHDLDHYLFPIVYIFVIIVSIPANIGSLCVSFLQPKKESELGIYLFSLSLSDLLYALTLPLWIDYTWNKDNWTFSPALCKGSAFLMYMKFYSSTAFLTCIAVARYLAVVYPLKFFFLRTRRIALMVSLSIWILETIFNAVMLWEDETVVEYCDAEKSNFTLCYDKYPLEKWQINLNLFRTCTGYAIPLVTILICNRKVYQAVRHNKATENKEKKRIIKLLVSITVTFVLCFTPFHVMLLIRCILEHAVNFEDHSNSGKRTYTMYRITVALTSLNCVADPILYCFVTETGRYDMWNILKFCTGRCNTSQRQRKRILSVSTKDTMELEVLE
modifications: GPCR25D111A
B3: GPR35D113A: GPR35 mutant GPCR, 113th aspartic acid substituted with alanine; SEQ ID NO: 191 (protein)
chain: MNGTYNTCGSSDLTWPPAIKLGFYAYLGVLLVLGLLLNSLALWVFCCRMQQWTETRIYMTNLAVADLCLLCTLPFVLHSLRDTSDTPLCQLSQGIYLTNRYMSISLVTAIAVARYVAVRHPLRARGLRSPRQAAAVCAVLWVLVIGSLVARWLLGIQEGGFCFRSTRHNFNSMRFPLLGFYLPLAVVVFCSLKVVTALAQRPPTDVGQAEATRKAARMVWANLLVFVVCFLPLHVGLTVRLAVGWNACALLETIRRALYITSKLSDANCCLDAICYYYMAKEFQEASALAVAPRAKAHKSQDSLCVTLA
modifications: GPR35D113A
B4: RE2D124A: RE2 mutant GPCR, 124th aspartic acid substituted with alanine; SEQ ID NO: 190 (protein)
chain: MSLNSSLSCRKELSNLTEEEGGEGGVIITQFIAIIVITIFVCLGNLVIVVTLYKKSYLLTLSNKFVFSLTLSNFLLSVLVLPFVVTSSIRREWIFGVVWCNFSALLYLLISSASMLTLGVIAIARYYAVLYPMVYPMKITGNRAVMALVYIWLHSLIGCLPPLFGWSSVEFDEFKWMCVAAWHREPGYTAFWQIWCALFPFLVMLVCYGFIFRVARVKARKVHCGTVVIVEEDAQRTGRKNSSTSTSSSGSRRNAFQGVVYSANQCKALITILVVLGAFMVTWGPYMVVIASEALWGKSSVSPSLETWATWLSFASAVCHPLIYGLWNKTVRKELLGMCFGDRYYREPFVQRQRTSRLFSISNRITDLGLSPHLTALMAGGQPLGHSSSTGDTGFSCSQDSGNLRAL
modifications: RE2D124A
B5: PGMO334E135F: mutant where the 135th glutamic acid of the PGMO334 polypeptide was substituted with phenylalanine; SEQ ID NO: 193 (protein)
chain: MSPECARAAGDAPLRSLEQANRTRFPFFSDVKGDHRLVLAAVETTVLVLIFAVSLLGNVCALVLVARRRRRGATACLVLNLFCADLLFISAIPLVLAVRWTEAWLLGPVACHLLFYVMTLSGSVTILTLAAVSLFRMVCIVHLQRGVRGPGRRARAVLLALIWGYSAVAALPLCVFFRVVPQRLPGADQEISICTLIWPTIPGEISWDVSFVTLNFLVPGLVIVISYSKILQITKASRKRLTVSLAYSESHQIRVSQQDFRLFRTLFLLMVSFFIMWSPIIITILLILIQNFKQDLVIWPSLFFWVVAFTFANSALNPILYNMTLCRNEWKKIFCCFWFPEKGAILTDTSVKRNDLSIISG
modifications: PGMO334E135F
B6: PGMO334E135A: mutant where the 135th glutamic acid of PGMO334 polypeptide was substituted with alanine; SEQ ID NO: 195 (protein)
chain: MSPECARAAGDAPLRSLEQANRTRFPFFSDVKGDHRLVLAAVETTVLVLIFAVSLLGNVCALVLVARRRRRGATACLVLNLFCADLLFISAIPLVLAVRWTEAWLLGPVACHLLFYVMTLSGSVTILTLAAVSLARMVCIVHLQRGVRGPGRRARAVLLALIWGYSAVAALPLCVFFRVVPQRLPGADQEISICTLIWPTIPGEISWDVSFVTLNFLVPGLVIVISYSKILQITKASRKRLTVSLAYSESHQIRVSQQDFRLFRTLFLLMVSFFIMWSPIIITILLILIQNFKQDLVIWPSLFFWVVAFTFANSALNPILYNMTLCRNEWKKIFCCFWFPEKGAILTDTSVKRNDLSIISG
modifications: PGMO334E135A
B7: PGMO334D259S: mutant where the 259th aspartic acid of PGMO334 polypeptide was substituted with serine; SEQ ID NO: 196 (protein)
chain: MSPECARAAGDAPLRSLEQANRTRFPFFSDVKGDHRLVLAAVETTVLVLIFAVSLLGNVCALVLVARRRRRGATACLVLNLFCADLLFISAIPLVLAVRWTEAWLLGPVACHLLFYVMTLSGSVTILTLAAVSLERMVCIVHLQRGVRGPGRRARAVLLALIWGYSAVAALPLCVFFRVVPQRLPGADQEISICTLIWPTIPGEISWDVSFVTLNFLVPGLVIVISYSKILQITKASRKRLTVSLAYSESHQIRVSQQSFRLFRTLFLLMVSFFIMWSPIIITILLILIQNFKQDLVIWPSLFFWVVAFTFANSALNPILYNMTLCRNEWKKIFCCFWFPEKGAILTDTSVKRNDLSIISG
modifications: PGMO334D259S
B8: PGMO334E135Q: mutant where the 135th glutamic acid of PGMO334 polypeptide was substituted with glutamine; SEQ ID NO: 194 (protein)
chain: MSPECARAAGDAPLRSLEQANRTRFPFFSDVKGDHRLVLAAVETTVLVLIFAVSLLGNVCALVLVARRRRRGATACLVLNLFCADLLFISAIPLVLAVRWTEAWLLGPVACHLLFYVMTLSGSVTILTLAAVSLQRMVCIVHLQRGVRGPGRRARAVLLALIWGYSAVAALPLCVFFRVVPQRLPGADQEISICTLIWPTIPGEISWDVSFVTLNFLVPGLVIVISYSKILQITKASRKRLTVSLAYSESHQIRVSQQDFRLFRTLFLLMVSFFIMWSPIIITILLILIQNFKQDLVIWPSLFFWVVAFTFANSALNPILYNMTLCRNEWKKIFCCFWFPEKGAILTDTSVKRNDLSIISG
modifications: PGMO334E135Q
B9: GPR43R217P: mutant where the 217th arginine of GPR43 polypeptide was substituted with proline; SEQ ID NO: 197 (protein)
chain: MLPDWKSSLILMAYIIIFLTGLPANLLALRAFVGRIRQPQPAPVHILLLSLTLADLLLLLLLPFKIIEAASNFRWYLPKVVCALTSFGFYSSIYCSTWLLAGISIERYLGVAFPVQYKLSRRPLYGVIAALVAWVMSFGHCTIVIIVQYLNTTEQVRSGNEITCYENFTDNQLDVVLPVRLELCLVLFFIPMAVTIFCYWRFVWIMLSQPLVGAQRPRRAVGLAVVTLLNFLVCFGPYNVSHLVGYHQRKSPWWRSIAVVFSSLNASLDPLLFYFSSSVVRRAFGRGLQVLRNQGSSLLGRRGKDTAEGTNEDRGVGQGEGMPSSDFTTE
modifications: GPR43R217P
B10: GPR43R217PE106D: GPR43R217P mutant where the 106th glutamic acid was substituted with aspartic acid; SEQ ID NO: 198 (protein)
chain: MLPDWKSSLILMAYIIIFLTGLPANLLALRAFVGRIRQPQPAPVHILLLSLTLADLLLLLLLPFKIIEAASNFRWYLPKVVCALTSFGFYSSIYCSTWLLAGISIDRYLGVAFPVQYKLSRRPLYGVIAALVAWVMSFGHCTIVIIVQYLNTTEQVRSGNEITCYENFTDNQLDVVLPVRLELCLVLFFIPMAVTIFCYWRFVWIMLSQPLVGAQRPRRAVGLAVVTLLNFLVCFGPYNVSHLVGYHQRKSPWWRSIAVVFSSLNASLDPLLFYFSSSVVRRAFGRGLQVLRNQGSSLLGRRGKDTAEGTNEDRGVGQGEGMPSSDFTTE
modifications: GPR43R217P/E106D

The molecules below were run on CRE reporter in GBCRC6 (assay: Constitutive activity of GPCR, Method 1 (GBCRC6 host, Renilla reniformis luciferase, induction ratio with 17β-estradiol)). Conditions: Method 1; GBCRC6 host; activity with 17β-estradiol divided by activity without; control plasmid about 1.
Type: cell-based, human
Description: After the incubation, coelenterazine h (Molecular Proves) (final concentration 250 nmol/L) was added to measure the activity of Renilla reniformis luciferase. For the activity measurement, a Wallac 1420 ARVOsx Multilabel Counter (manufactured by Wallac Berthold Japan) or a VIM camera (Argus-50/2D Luminometer/MP; manufactured by Hamamatsu Photonics) was used.
In each method, the induction ratio of the cells transfected with the control plasmid was about 1. It is judged that the higher the induction ratio of the cells to which a GPCR expression plasmid was transfected, the stronger the constitutive activity of the GPCR.

| Constitutive Activity (induction ratio) | Molecule |
| --- | --- |
| 27-fold | GPR 30 |
| 40-fold | GPR 4 |
| 12-fold | GPR 62 |
| 12.7-fold | OGR1S221N |
| 15-fold | GPR 88 |
| 20-fold | GPCR 25 |
| 25-fold | GPR 35 |
| 11-fold | GPR 92 |
| 3.6-fold | OGR1 |
| 12-fold | GPR 61 |
| 63-fold | GPR 6 |
| 20-fold | B1 |

Same assay, conditions: method 1 of (2) of Example 22; induction ratio of reporter activity with 17β-estradiol

| Constitutive Activity | Molecule |
| --- | --- |
| 56-fold | OGR1S221N/D118A: OGR1S221N mutant GPCR with 118th aspartic acid substituted with alanine; SEQ ID NO: 189 |
| 35-fold | B2 |
| 97-fold | B3 |
| 32-fold | B4 |

Same assay, conditions: method of (2) of Example 22 utilizing GBCRC6 as a host

| induction ratio (constitutive activity) | Molecule |
| --- | --- |
| about 3 fold | B5 |
| about 14 fold | B6 |
| about 5 fold | B7 |
| about 3 fold | B8 |
| about 2 fold | B9 |
| about 17 fold | B10 |
